According to US7368420B1, “Akt compositions for enhancing survival of cells” (Caritas St. Elizabeth's Medical Center of Boston, Inc., priority 1998, dated 2008):
Entries after “also recorded” stand apart in the source; their conditions may differ.

Columns and labels:
C2C12 cells [1] = assay: Flow cytometry (FACS) cell cycle analysis during myogenic differentiation; type: cell-based, murine; conditions: percentage of cells; differentiation media, 0.5 mM oligonucleotide, 24 hours; DNA content by FACS
C2C12 cells [2] = type: cell-based, murine
Cdk4 = assay: Western immunoblot of C2C12 lysates, anti-Cdk4; type: cell-based, murine; conditions: differentiation media with Lipofectin, 24 hours
Akt [3] = type: cell-based, murine
p21 = assay: Western immunoblot of C2C12 lysates, anti-p21; type: cell-based, murine; conditions: differentiation media with Lipofectin, 24 hours
[4] = test system: neonatal rat cardiac myocytes; assay: Neonatal cardiac myocyte viability, trypan-blue exclusion assay; type: cell-based
cardiomyocytes = assay: TUNEL analysis of cultured cardiomyocytes; type: cell-based, rat; conditions: increasing concentrations of IGF-1, mock- and Adeno-β-gal-transfected cells, 48 hours
Akt [5] = assay: Akt kinase assay (histone H2B) in cardiac myocyte lysates; type: cell-based, rat; conditions: serum-deprived, 50 ng/ml IGF-1, 15 min
cardiac myocytes = assay: Hoechst 33342 staining for pyknotic nuclei in cardiac myocytes; type: cell-based, rat; conditions: serum-free media with IGF-1
Akt2 = Akt2 kinase assay (histone H2B) in HUVEC lysates; type: cell-based, human; conditions: serum-deprived HUVEC, VEGF 100 ng/ml, 15 min
HUVECs [6] = assay: HUVEC plasmid co-transfection cell-death assay (surviving β-galactosidase-positive cells); type: cell-based, human; conditions: 25 ng/ml VEGF, serum-free 21 hrs, control plasmid
HUVECs [7] = assay: HUVEC cell viability, Trypan-blue exclusion assay; type: cell-based, human; conditions: 100 ng/ml VEGF, serum-free DMEM, 21 hours

Akt, sequence (P31750 whole entry): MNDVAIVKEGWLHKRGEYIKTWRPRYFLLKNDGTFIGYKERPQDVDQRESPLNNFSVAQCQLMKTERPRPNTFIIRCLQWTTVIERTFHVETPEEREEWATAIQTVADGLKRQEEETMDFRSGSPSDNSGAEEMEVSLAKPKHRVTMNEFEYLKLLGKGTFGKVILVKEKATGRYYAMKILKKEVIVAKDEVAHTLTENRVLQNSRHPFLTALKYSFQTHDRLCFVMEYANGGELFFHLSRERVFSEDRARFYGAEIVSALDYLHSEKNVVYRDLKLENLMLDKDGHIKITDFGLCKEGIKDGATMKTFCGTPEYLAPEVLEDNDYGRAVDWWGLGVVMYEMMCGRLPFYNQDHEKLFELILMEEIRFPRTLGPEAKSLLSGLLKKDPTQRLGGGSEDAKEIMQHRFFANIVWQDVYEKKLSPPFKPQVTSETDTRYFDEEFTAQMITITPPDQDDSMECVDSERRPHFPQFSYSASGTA

5′-TGG ATC CGA CAT GTC AGA-3′ (TGGATCCGACATGTCAGA; all phosphorothioate, sugars by position and methylation of C not given here) [Control]
Cell cycle phase G0/G1 (C2C12 cells [1]): 67
Cell cycle phase G2/M (C2C12 cells [1]): 8
Cell cycle phase S (C2C12 cells [1]): 25

5′-TGTCAGGCTGGTCTGCCTCC-3′ (antisense TGTCAGGCTGGTCTGCCTCC; chemistry not given here) [p21-AS]
cell-death versus control cultures (C2C12 cells [2]): Markedly enhanced cell-death
cdk4 expression (Cdk4): no significant effect on cdk4
Cell cycle phase G0/G1 (C2C12 cells [1]): 38
Cell cycle phase G2/M (C2C12 cells [1]): 17
Cell cycle phase S (C2C12 cells [1]): 45
Akt expression (Akt [3]): statistically significant reduction in Akt expression
induction of p21 (p21): markedly inhibited the induction of p21

IGF-1: Insulin-like growth factor-1, purchased from Gibco BRL
time cardiac myocyte viability was sustained ([4]; 50 ng/ml IGF-1, serum-depleted): more than 48 hours
cardiac myocyte viability / cytoprotection by IGF-1 ([4]; serum-free media, up to 72 hours): dependent on the dose of IGF-1; also recorded: maintained
frequency of myocyte apoptosis (TUNEL) (cardiomyocytes): reduced the frequency of myocyte apoptosis
Akt activity (phosphorylation of histone H2B) (Akt [5]): induced the phosphorylation of histone H2B
incidence of pyknotic nuclei (cardiac myocytes): suppressed the incidence of pyknotic nuclei

VEGF
Akt2 kinase activity (Akt2): little or no activation of Akt2
increase in number of surviving β-galactosidase positive cells (factor) (HUVECs [6]): 3
cell loss induced by serum-deprivation (HUVECs [7]): completely reversed cell loss induced by serum-deprivation
